# Experimental data from ChEMBL document CHEMBL5042527, “Neochrysosporazines: Precursor-Directed Biosynthesis Defines a Marine-Derived Fungal Natural Product P-Glycoprotein Inhibitory Pharmacophore” (J Med Chem, 2022).
# Assay: Metabolic stability of the compound in human SW620/AD300 cells assessed as production of metabolite -Deacetylchrysosporazine B at 2.5 uM for 2 to 48 hrs
# Type: ADME, cell-based
# Details: sw620/ad300, 2.5 µM, time 2-48 hrs
row,Stability,SMILES
1,Stable,COc1cc([C@H]2c3ccccc3C(=O)N3C[C@H](C(=O)c4ccccc4)N(C(C)=O)C[C@H]23)cc2c1OCO2

# Assay: Cytotoxicity against human […] cells overexpressing P-glycoprotein measured after 48 hrs by MTT assay
# Type: functional, cell-based
# Details: not given
row,SMILES,IC50 [µM]
1,COc1c2c(cc3c1[C@H](c1ccccc1)[C@H]1C(=O)N4C[C@H](Cc5ccccc5)N(C(C)=O)C[C@@H]4[C@@H]31)OCO2,> 30
2,COc1cc(C[C@H]2CN3C(=O)/C(=C/c4ccccc4)[C@H](c4cc(OC)c5c(c4)OCO5)[C@H]3CN2C(C)=O)cc2c1OCO2,> 30
3,COc1cc([C@H]2/C(=C\c3ccccc3)C(=O)N3C[C@H](Cc4ccccc4)N(C(C)=O)C[C@H]23)cc2c1OCO2,> 30
4,COc1cc([C@@H]2[C@H]3CN(C(C)=O)[C@@H](Cc4ccccc4)CN3C(=O)[C@@]23O[C@H]3c2ccccc2)cc2c1OCO2,> 30
5,COc1c2c(cc3c1[C@H](c1ccccc1)[C@@]1(O)C(=O)N4C[C@H](Cc5ccccc5)N(C(C)=O)C[C@@H]4[C@@H]31)OCO2,> 30
6,COc1cc(C[C@H]2CN3C(=O)[C@@]4(O[C@H]4c4ccccc4)[C@H](c4cc(OC)c5c(c4)OCO5)[C@H]3CN2C(C)=O)cc2c1OCO2,> 30
7,COc1cc([C@H]2c3cccnc3C(=O)N3C[C@@H](C(=O)c4ccccc4)N(C(C)=O)C[C@H]23)cc2c1OCO2,> 30
8,COc1cc([C@H]2c3cnccc3C(=O)N3C=CN(C(C)=O)C[C@H]23)cc2c1OCO2,> 30
9,COc1cc(C[C@H]2CN(C(C)=O)[C@@H](Cc3ccccc3)CN2C(=O)/C=C/c2ccccc2)cc2c1OCO2,> 30
10,COc1c2c(cc3c1[C@H](c1ccccc1)[C@H]1C(=O)N4C[C@H](Cc5ccccc5)NC[C@@H]4[C@@H]31)OCO2,> 30
11,COC1=C[C@]2(C[C@H]3CN(C(C)=O)[C@@H](Cc4ccccc4)CN3C2=O)OC1=O,> 30
12,COc1cc([C@H]2c3ccccc3C(=O)N3C[C@H](Cc4ccccc4)N(C(C)=O)C[C@H]23)cc2c1OCO2,> 30
13,COc1cc([C@H]2c3ncccc3C(=O)N3C[C@H](Cc4ccccc4)N(C(C)=O)C[C@H]23)cc2c1OCO2,> 30
14,COc1cc(C[C@H]2CN3C(=O)[C@]4(O)[C@@H](c5ccccc5)c5c(cc6c(c5OC)OCO6)[C@@H]4[C@H]3CN2C(C)=O)cc2c1OCO2,> 30
15,COc1cc([C@H]2c3cnccc3C(=O)N3C[C@H](C(=O)c4ccccc4)NC[C@H]23)cc2c1OCO2,> 30
16,COc1cc(C[C@H]2CN(C(C)=O)[C@@H](Cc3ccccc3)CN2C(=O)c2ccncc2)cc2c1OCO2,> 30
17,COc1cc([C@H]2c3ncccc3C(=O)N3C[C@H](C(=O)c4ccccc4)N(C(C)=O)C[C@H]23)cc2c1OCO2,> 30
18,COc1cc(/C=C2/C(=O)N3C[C@H](Cc4ccccc4)N(C(C)=O)C[C@@H]3[C@H]2c2cc(OC)c3c(c2)OCO3)ccc1O,> 30
19,COc1cc([C@H]2c3cnccc3C(=O)N3C[C@@H](C(=O)c4ccccc4)N(C(C)=O)C[C@H]23)cc2c1OCO2,> 30
20,CC(=O)N1C[C@H](Cc2ccccc2)N(C(=O)c2ccccc2)C[C@@H]1Cc1ccccc1,> 30
21,COc1cc(/C=C2/C(=O)N3C[C@H](Cc4cc(OC)c5c(c4)OCO5)N(C(C)=O)C[C@@H]3[C@H]2c2cc(OC)c3c(c2)OCO3)ccc1O,> 30
22,COc1cc([C@H]2c3cccnc3C(=O)N3C[C@@H](C(=O)c4ccccc4)NC[C@H]23)cc2c1OCO2,> 30
23,COc1cc([C@H]2c3ccccc3C(=O)N3C[C@H](C(=O)c4ccccc4)N(C(C)=O)C[C@H]23)cc2c1OCO2,> 30
24,CC(=O)N1C[C@H](Cc2ccccc2)N(C(=O)/C=C/c2ccccc2)C[C@@H]1Cc1ccccc1,> 30
25,COc1cc([C@H]2c3ccccc3C(=O)N3C[C@@H](C(=O)c4ccccc4)N(C(C)=O)C[C@H]23)cc(OC)c1O,> 30
26,COc1cc([C@H]2c3cccnc3C(=O)N3C=CN(C(C)=O)C[C@H]23)cc2c1OCO2,> 30
27,COc1cc(C[C@H]2CN(C(C)=O)[C@@H](Cc3ccccc3)CN2C(=O)c2cccnc2)cc2c1OCO2,> 30

row,SMILES,IC50 [µM]
1,COc1cc(C[C@H]2CN3C[C@@H]4[C@@H](c5ccccc5)c5c(cc6c(c5OC)OCO6)[C@@H]4[C@H]3CN2)cc2c1OCO2,> 30
2,COc1cc(/C=C/C(=O)N2C[C@H](Cc3cc(OC)c4c(c3)OCO4)N(C(C)=O)C[C@@H]2Cc2cc(OC)c3c(c2)OCO3)ccc1O,> 30
3,COc1cc([C@H]2c3cccnc3C(=O)N3C[C@H](C(=O)c4ccccc4)NC[C@H]23)cc2c1OCO2,> 30
4,COc1cc([C@H]2c3ccccc3C(=O)N3C[C@H](C(=O)c4ccccc4)N(C(C)=O)C[C@H]23)cc(OC)c1O,> 30
5,C=C(c1ccccc1)[C@H]1CN2C(=O)c3ncccc3[C@H](c3cc(OC)c4c(c3)OCO4)[C@H]2CN1,> 30
6,COc1cc([C@H]2c3ncccc3C(=O)N3C=CN(C(C)=O)C[C@H]23)cc2c1OCO2,> 30
7,COc1cc(C[C@H]2CN3C(=O)/C(=C/c4ccc(O)cc4)[C@H](c4cc(OC)c5c(c4)OCO5)[C@H]3CN2C(C)=O)cc2c1OCO2,> 30
8,COc1cc([C@H]2c3cnccc3C(=O)N3C[C@H](C(=O)c4ccccc4)N(C(C)=O)C[C@H]23)cc2c1OCO2,> 30
9,COc1cc([C@H]2c3cccnc3C(=O)N3C[C@H](C(=O)c4ccccc4)N(C(C)=O)C[C@H]23)cc2c1OCO2,> 30
10,CC(=O)N1C[C@H](Cc2cc(O)c3c(c2)OCO3)N(C(=O)c2ccccc2)C[C@@H]1Cc1ccccc1,> 30
11,COc1cc([C@H]2c3ccncc3C(=O)N3C[C@H](Cc4ccccc4)N(C(C)=O)C[C@H]23)cc2c1OCO2,> 30
12,COc1cc([C@H]2c3cccnc3C(=O)N3C[C@H](Cc4ccccc4)N(C(C)=O)C[C@H]23)cc2c1OCO2,> 30
13,COc1cc(C[C@H]2CN(C(C)=O)[C@@H](Cc3ccccc3)CN2C(=O)c2ccccc2)cc(OC)c1O,> 30
14,COc1cc([C@H]2c3ccncc3C(=O)N3C=CN(C(C)=O)C[C@H]23)cc2c1OCO2,> 30
15,COc1cc([C@H]2c3cnccc3C(=O)N3C[C@H](Cc4ccccc4)N(C(C)=O)C[C@H]23)cc2c1OCO2,> 30
16,COc1cc([C@H]2c3cnccc3C(=O)N3C[C@@H](C(=O)c4ccccc4)NC[C@H]23)cc2c1OCO2,> 30
17,COc1cc([C@H]2c3ccccc3C(=O)N3C=CN(C(C)=O)C[C@H]23)cc2c1OCO2,> 30
18,C=C(c1ccccc1)[C@H]1CN2C(=O)c3ccncc3[C@H](c3cc(OC)c4c(c3)OCO4)[C@H]2CN1,> 30
19,C=C(c1ccccc1)[C@H]1CN2C(=O)c3ccccc3[C@H](c3cc(OC)c4c(c3)OCO4)[C@H]2CN1,> 30
20,COc1cc(C[C@H]2CN3C(=O)[C@@H]4[C@@H](c5ccccc5)c5c(cc6c(c5OC)OCO6)[C@@H]4[C@H]3CN2C(C)=O)cc2c1OCO2,> 30
21,COc1cc([C@H]2c3ccccc3C(=O)N3C[C@H](C(=O)c4ccccc4)NC[C@H]23)cc2c1OCO2,> 30
22,COc1cc(C[C@H]2CN(C(C)=O)[C@@H](Cc3ccccc3)CN2)cc(OC)c1O,> 30
23,COc1cc([C@H]2/C(=C\c3ccc(O)cc3)C(=O)N3C[C@H](Cc4ccccc4)N(C(C)=O)C[C@H]23)cc2c1OCO2,> 30
24,COc1cc(C[C@H]2CN(C(=O)/C=C/c3ccccc3)[C@@H](Cc3cc(OC)c4c(c3)OCO4)CN2C(C)=O)cc2c1OCO2,> 30
25,COc1cc(C[C@H]2CN(C(C)=O)[C@@H](Cc3ccccc3)CN2C(=O)c2ccccn2)cc2c1OCO2,> 30
26,COc1cc(C[C@H]2CN(C(=O)c3ccccc3)[C@@H](Cc3cc(OC)c4c(c3)OCO4)CN2C(C)=O)cc2c1OCO2,> 30

# Assay: Metabolic stability of the compound in human SW620/AD300 cells assessed as production of metabolite -Deacetylchrysosporazine C at 2.5 uM for 2 to 48 hrs
# Type: ADME, cell-based
# Details: sw620/ad300, 2.5 µM, time 2-48 hrs
row,Stability,SMILES
1,Stable,COc1cc([C@H]2c3ccccc3C(=O)N3C[C@H](Cc4ccccc4)N(C(C)=O)C[C@H]23)cc2c1OCO2

# Assay: Metabolic stability of the compound in human SW620/AD300 cells assessed as production of metabolite -Deacetylchrysosporazine F at 2.5 uM for 2 to 48 hrs
# Type: ADME, cell-based
# Details: sw620/ad300, 2.5 µM, time 2-48 hrs
row,Stability,SMILES
1,Stable,COc1cc(C[C@H]2CN3C(=O)[C@@H]4[C@@H](c5ccccc5)c5c(cc6c(c5OC)OCO6)[C@@H]4[C@H]3CN2C(C)=O)cc2c1OCO2

# Assay: Metabolic stability of the compound in human SW620/AD300 cells assessed as production of metabolite -Deacetylchrysosporazine J at 2.5 uM for 2 to 48 hrs
# Type: ADME, cell-based
# Details: sw620/ad300, 2.5 µM, time 2-48 hrs
row,Stability,SMILES
1,Stable,COc1c2c(cc3c1[C@H](c1ccccc1)[C@H]1C(=O)N4C[C@H](Cc5ccccc5)N(C(C)=O)C[C@@H]4[C@@H]31)OCO2
